Here are results for five molecules from patent publication US11091494B2, “Crystal form of acalabrutinib and preparation method and use thereof” (Crystal Pharmaceutical (Suzhou) Co., Ltd., priority 2018, dated 2021).

The conditions of series [1]: cited from earlier work; for Highest water content: water content varies in different conditions.
Series [2] in a line: Stability of crystalline form on storage, checked by XRPD. In kind it is physicochemical. As to conditions: for Solid form: 2 months, XRPD. The protocol:
Approximately 10 mg of Form A of the present disclosure was weighed and stored at different conditions of 25° C./60% RH in open dish, 25° C./60% RH in closed dish, 40° C./75% RH in open dish, and 40° C./75% RH in closed dish. Crystalline forms were checked by XRPD.
Approximately 10 mg of Form D of the present disclosure was weighed and stored at different conditions of 25° C./60% RH in closed dish, 25° C./60% RH in open dish, 40° C./75% RH in closed dish. Crystalline form was checked by XRPD.
Approximately 10 mg of Form F of the present disclosure was weighed and stored at different conditions of 25° C./60% RH in closed dish, 25° C./60% RH in open dish, and 40° C./75% RH in closed dish, 40° C./75% RH in open dish. Crystalline forms were checked by XRPD.
Approximately 10 mg of Form G of the present disclosure was weighed and stored at 25° C./60% RH in closed dish. Crystalline forms were checked by XRPD.
Approximately 10 mg of Form CS15 of the present disclosure was weighed and stored at different conditions of 25° C./60% RH in open dish, 25° C./60% RH in closed dish. Crystalline forms were checked by XRPD.

Series [3] can be described thus: Intrinsic dissolution rate in pH 2.5 HCl/NaCl aqueous solution. In kind it is physicochemical. The note with it: for Cumulative dissolution / IDR (intrinsic dissolution rate): pH 2.5 HCl/NaCl, 37° C.; for Cumulative dissolution: 0.5 cm^2 pellet; for IDR (intrinsic dissolution rate): slope over 0-45 minutes. Here is the method: Approximately 200 mg of Form A and Form I in WO2017002095A1 were added into the die, compressed at 10 kN and held for 1 minute to obtain a pellet having a surface area of 0.5 cm^2. The whole tool with the pellet was transferred to a dissolution apparatus to test the intrinsic dissolution rate. The slope (mg/min) was calculated according to the data within 0-45 minutes. Intrinsic dissolution rate (IDR, mg/min/cm^2) was further calculated according to the slope.
Approximately 200 mg of Form D and Form I in WO2017002095A1 were added into the die, compressed at 10 kN and held for 1 minute to obtain a pellet having a surface area of 0.5 cm^2. The whole tool with the pellet was transferred to a dissolution apparatus to test the intrinsic dissolution rate. The slope (mg/min) was calculated according to the data within 0-45 minutes. Intrinsic dissolution rate (IDR, mg/min/cm^2) was further calculated according to the slope.
Approximately 200 mg of Form F and Form I in WO2017002095A1 were added into the die, compressed at 10 kN and held for 1 minute to obtain a pellet having a surface area of 0.5 cm^2. The whole tool with the pellet was transferred to a dissolution apparatus to test the intrinsic dissolution. The slope (mg/min) was calculated according to the data within 0-45 minutes. Intrinsic dissolution rate (IDR, mg/min/cm^2) was further calculated according to the slope.
Approximately 200 mg of Form G and Form I in WO2017002095A1 were added into the die, compressed at 10 kN and held for 1 minute to obtain a pellet having a surface area of 0.5 cm^2. The whole tool with the pellet was transferred to a dissolution apparatus to test the intrinsic dissolution. The slope (mg/min) was calculated according to the data within 0-45 minutes. Intrinsic dissolution rate (IDR, mg/min/cm^2) was further calculated according to the slope.
Approximately 200 mg of Form CS15 and Form I in WO2017002095A1 were added into the die, compressed at 10 kN and held for 1 minute to obtain a pellet having a surface area of 0.5 cm^2. The whole tool with the pellet was transferred to a dissolution apparatus to test the intrinsic dissolution. The slope (mg/min) was calculated according to the data within 0-45 minutes. Intrinsic dissolution rate (IDR, mg/min/cm^2) was further calculated according to the slope.

Series [4] can be described thus: Compressibility (tensile strength of compressed tablet). In kind it is physicochemical. The note with it: about 80 mg, φ6 mm round tooling, compressed at 10 kN. The protocol:
Approximately 80 mg of Form A and Form I in WO2017002095A1 were weighed into the dies of a φ6 mm round tooling, compressed at 10 kN manually, then stored in a desiccator for 24 hours until complete elastic recovery. Radial crushing force (hardness, H) was tested with an intelligent tablet hardness tester. Diameter (D) and thickness (L) were tested with a caliper. Tensile strength of the powder that with different hardness was calculated with the following formula: T=2H/πDL. Under a certain force, the greater the tensile strength, the better the compressibility.
Approximately 80 mg of Form D and Form I in WO2017002095A1 were weighed into the dies of a φ6 mm round tooling, compressed at 10 kN manually, and then stored in a desiccator for 24 hours until complete elastic recovery. Radial crushing force (hardness, H) was tested with an intelligent tablet hardness tester. Diameter (D) and thickness (L) were tested with a caliper. Tensile strength of the powder with different hardness was calculated with the following formula: T=2H/πDL. Under a certain force, the greater the tensile strength, the better the compressibility.
Approximately 80 mg of Form F and Form I in WO2017002095A1 were weighed into the dies of a φ6 mm round tooling, compressed at 10 kN manually, and then stored in a desiccator for 24 hours until complete elastic recovery. Radial crushing force (hardness, H) was tested with an intelligent tablet hardness tester. Diameter (D) and thickness (L) were tested with caliper. Tensile strength of the powder with different hardness was calculated with the following formula: T=2H/πDL. Under a certain force, the greater the tensile strength, the better the compressibility.
Approximately 80 mg of Form G and Form I of WO2017002095A1 were weighed into the dies of a φ6 mm round tooling, compressed at 10 kN manually, and then stored in a desiccator for 24 hours until complete elastic recovery. Radial crushing force (hardness, H)) was tested with an intelligent tablet hardness tester. Diameter (D) and thickness (L) were tested with caliper. Tensile strength of the powder with different hardness was calculated with the following formula: T=2H/πDL. Under a certain force, the greater the tensile strength, the better the compressibility.
Approximately 80 mg of Form CS15 and Form I in WO2017002095A1 were weighed into the dies of a φ6 mm round tooling, compressed at 10 kN manually, and then stored in a desiccator for 24 hours until complete elastic recovery. Radial crushing force (hardness, H) was tested with an intelligent tablet hardness tester. Diameter (D) and thickness (L) were tested with caliper. Tensile strength of the powder with different hardness was calculated with the following formula: T=2H/πDL. Under a certain force, the greater the tensile strength, the better the compressibility.

The nature of series [5]: Adhesiveness (amount of material sticking to the punch). As to conditions: about 30 mg, φ8 mm round tooling, 10 kN, compression repeated twice. Format: physicochemical. Here is the method:
Approximately 30 mg of Form A and Form I in WO2017002095A1 were weighed, added into the dies of a φ8 mm round tooling, compressed at 10 kN and held for about 30 s. The amount of material sticking to the punch was weighed. The compression was repeated twice and the cumulative amount and average amount of material sticking to the punch during the compression were recorded.
Approximately 30 mg of Form F and Form I in WO2017002095A1 were weighed, added into the dies of a φ8 mm round tooling, compressed at 10 kN and held for about 30 s. The amount of material sticking to the punch was weighed. The compression was repeated twice and the cumulative amount and average amount of material sticking to the punch during the compression were recorded.
Approximately 30 mg of Form G and Form I in WO2017002095A1 were weighed, added into the dies of a φ8 mm round tooling, compressed at 10 kN and held for about 30 s. The amount of material sticking to the punch was weighed. The compression was repeated twice and the cumulative amount and average amount of material sticking to the punch during the compression were recorded.

As for `CC#CC(=O)N1CCC[C@H]1c1nc(-c2ccc(C(=O)Nc3ccccn3)cc2)c2c(N)nccn12` [Crystalline form III, (S)-4-(8-amino-3-(1-(but-2-ynoyl)pyrrolidin-2-yl)imidazo[1,5-a]pyrazin-1-yl)-N-(pyridin-2-yl)benzamide], in series [1] (as disclosed in WO2017002095A1), the “Stability of the crystalline form” value was “unstable”. In series [1], the Highest water content was 8%.

Regarding `CC#CC(=O)N1CCC[C@H]1c1nc(-c2ccc(C(=O)Nc3ccccn3)cc2)c2c(N)nccn12` [Crystalline form IV, (S)-4-(8-amino-3-(1-(but-2-ynoyl)pyrrolidin-2-yl)imidazo[1,5-a]pyrazin-1-yl)-N-(pyridin-2-yl)benzamide], the “Stability of the crystalline form” value in series [1] (as disclosed in WO2017002095A1) was “unstable”.

In the case of `CC#CC(=O)N1CCC[C@H]1c1nc(-c2ccc(C(=O)Nc3ccccn3)cc2)c2c(N)nccn12` [Form D, (S)-4-(8-amino-3-(1-(but-2-ynoyl)pyrrolidin-2-yl)imidazo[1,5-a]pyrazin-1-yl)-N-(pyridin-2-yl)benzamide], the “Time kept stable (crystalline state doesn't change)” value in series [2] (25° C./60% RH in closed dish), in series [2] (25° C./60% RH in open dish) and in series [2] (40° C./75% RH in closed dish) was “at least 2 months” throughout. Moreover, the Solid form entry in series [2] (25° C./60% RH in closed dish), in series [2] (25° C./60% RH in open dish) and in series [2] (40° C./75% RH in closed dish) was “Form D” each time. Also, in series [2] (25° C./60% RH in open and closed dishes, at least 2 months), the “Chemical purity on storage” value was “remains substantially unchanged”. In addition, the Cumulative dissolution came to 0.00 mg in series [3] (0 min); 0.70 mg in series [3] (5 min); 1.73 mg in series [3] (10 min); 2.82 mg in series [3] (15 min); 3.57 mg in series [3] (20 min); 4.77 mg in series [3] (25 min). Besides, the Cumulative dissolution in series [3] (30 min) came out at 6.26 mg; in series [3] (35 min), 7.36 mg; in series [3] (45 min) it was 9.72 mg. The “IDR relative to that of Form I in WO2017002095A1” value in series [3] (pH 2.5 HCl/NaCl solution) was 1.1 times. For the same molecule, the “IDR (intrinsic dissolution rate)” value in series [3] worked out at 0.4112 mg/min/cm^2. This molecule also registered a Tensile strength in series [4] of 0.83 MPa.

As to `CC#CC(=O)N1CCC[C@H]1c1nc(-c2ccc(C(=O)Nc3ccccn3)cc2)c2c(N)nccn12` [Form I in WO2017002095A1, (S)-4-(8-amino-3-(1-(but-2-ynoyl)pyrrolidin-2-yl)imidazo[1,5-a]pyrazin-1-yl)-N-(pyridin-2-yl)benzamide, reference compound], the Cumulative dissolution in series [3] (0 min) worked out at 0.00 mg; in series [3] (5 min) it was 0.92 mg; in series [3] (10 min) it was 1.64 mg; in series [3] (15 min), 2.81 mg; in series [3] (20 min), 3.66 mg; in series [3] (25 min) it was 4.62 mg. For the same molecule, the figures for the Cumulative dissolution in series [3] (30 min), in series [3] (35 min) and in series [3] (45 min) were 5.58 mg, 6.40 mg and 8.16 mg, respectively. Besides, the “IDR (intrinsic dissolution rate)” value in series [3] worked out at 0.3656 mg/min/cm^2. In addition, in series [4], the Tensile strength result was “Unable to be compressed”. For the same molecule, the “Average amount (material sticking to the punch)” value in series [5] amounted to 45 µg. In addition, the “Cumulative amount (material sticking to the punch)” value in series [5] is 90 µg.

Consider `CC#CC(=O)N1CCC[C@H]1c1nc(-c2ccc(C(=O)Nc3ccccn3)cc2)c2c(N)nccn12` [Crystalline form II, (S)-4-(8-amino-3-(1-(but-2-ynoyl)pyrrolidin-2-yl)imidazo[1,5-a]pyrazin-1-yl)-N-(pyridin-2-yl)benzamide], for which the Flowability entry in series [1] (as disclosed in WO2017002095A1) is given as “poor”. Moreover, in series [1], the Highest water content is reported as 10%.
